Legend:
[1] = tested on: Leishmania infantum MHOM/MA(BE)/67/ITMAP263 intracellular amastigotes; conditions: for IC50: read-out: L. infantum MHOM/MA(BE)/67/ITMAP263 intracellular amastigotes IC50; for L. Inf. pIC50: from L. infantum intracellular amastigote IC50
[2] = tested on: L. donovani MHOM/ET/67/L82 intracellular amastigotes; conditions: read-out: L. donovani MHOM/ET/67/L82 intracellular amastigotes IC50
[3] = tested on: primary peritoneal mouse macrophages (PMM); conditions: PMM IC50 / L. infantum IC50
[4] = tested on: MRC-5SV2 cells; test: Cytotoxicity assay on MRC-5SV2 cells (resazurin)
[5] = tested on: primary peritoneal mouse macrophages (PMM); test: Cytotoxicity to PMM (microscopic scoring within susceptibility assay)

SMILES	IC50 [1]	IC50 [2]	SI (vs PMM) [3]	CC50 [4]	IC50 [5]	L. Inf. pIC50 [1]
COc1ccc(S(=O)(=O)N(C)C)cc1NC(=O)Cn1c(C)cc2ccccc21 [Compound Z109062140]	> 32 µM	> 32 µM	1	> 32 µM	> 32 µM	
CN(C)S(=O)(=O)c1cccc(NC(=O)CN2CCCc3ccccc32)c1 [Compound Z46159369]	> 32 µM	> 32 µM	1	> 32 µM	> 32 µM	
COc1cc(C)c(C)cc1S(=O)(=O)NC1CCCCC1 [Compound Z1542834122]	> 32 µM	> 32 µM	1	> 32 µM	> 32 µM	
CCN(CC)S(=O)(=O)c1ccc(OC)c(NC(=O)CNc2cccc3c2CCCC3)c1 [Compound Z133511332]	> 32 µM	> 32 µM	1	> 32 µM	> 32 µM	
CCc1c(C(=O)N2CCc3ccc(S(=O)(=O)NC)cc32)[nH]c(C)c1C(C)=O [Compound Z1262206860]	> 32 µM	> 32 µM	1	> 32 µM	> 32 µM	
CCCCOc1cc(C)c(C(C)C)cc1S(=O)(=O)NC1CCCCC1 [Compound Z1346174753]	1.01 µM	3.39 µM	16	3.74 µM	16 µM	6
CCCCCOc1cc(C)c(Cl)cc1S(N)(=O)=O [Compound Z1724003560]	> 32 µM	> 32 µM	1	> 32 µM	> 32 µM	
CCN(Cc1ccccc1)S(=O)(=O)c1cc(OC)c(C)cc1OC [Compound Z2235810678]	1.08 µM	6.35 µM	30	> 32 µM	> 32 µM	5.97
CCCCCOc1cc(C)c(C)cc1S(=O)(=O)NC1CC(C)(C)NC(C)(C)C1 [Compound Z2035103903]	4.76 µM	16.2 µM	7	10.9 µM	> 32 µM	5.32
COc1cc(S(=O)(=O)N2CCN(Cc3ccccc3)CC2)c(OC)cc1C [Compound Z1532943652]	> 32 µM	> 32 µM	1	> 32 µM	> 32 µM	
CCCOc1cc(C)c(C)cc1S(=O)(=O)NC1CCCCC1 [Compound Z1198524053]	5.38 µM	> 32 µM	6	> 32 µM	> 32 µM	5.27
CCN(CC)S(=O)(=O)c1ccc(OC)c(NC(=O)CN(C)c2ccccc2)c1 [Compound Z46175669]	> 32 µM	> 32 µM	1	> 32 µM	> 32 µM	
COc1ccc(S(=O)(=O)N(C)C)cc1NC(=O)Cn1c(=O)oc2ccccc21 [Compound Z15399918]	> 32 µM	> 32 µM	1	> 32 µM	> 32 µM	
COc1ccc(S(=O)(=O)N(C)C)cc1NC(=O)C1Cc2ccccc2O1 (centres unmarked) [Compound Z109062150]	> 32 µM	> 32 µM	1	> 32 µM	> 32 µM	
CCCCCOc1cc(C)c(C)cc1S(=O)(=O)NC1CCCCC1 [Compound Z1201712752]	1.04 µM	4.32 µM	31	26.1 µM	> 32 µM	5.98
CCOc1cc(S(=O)(=O)N(Cc2ccccc2)Cc2ccccc2)c(OCC)cc1C [Compound Z1198037468]	0.87 µM	25.4 µM	37	> 32 µM	> 32 µM	6.06

— paper PMC8126888 (RSC Medicinal Chemistry, 2020)
